Experimental data: US6995018B1, “Complex formed by N-linked glycoproteins (SIBLINGS)and Factor H” (The United States of America as represented by the …, priority 1999, dated 2006)

Legend:
[1] = tested on: Murine erythroleukemia (MEL) cells; experiment: Alternate complement mediated cell lysis assay, MEL cells with normal human serum; assay type: cell-based; conditions: for protection of MEL cells from complement-mediated lysis (cell viability): 10 μg/mL protein 10 min, normal human serum 1:10, 2 h, trypan blue and MTT; for effect of pretreatment on protective effect of rOPN: pretreatment followed by rOPN 10 μg/mL
Method: MEL cells were rinsed three times with GVB-MgEGTA buffer, resuspended in GVB-MgEGTA at a density of 5×10^6 cells/mL, and incubated at 37° C. with different concentrations of normal human serum. After 2 hrs, cells were harvested for trypan blue exclusion assay. The thiazolium blue assay was carried out at identical serum dilutions and cell viability was determined by absorbance at 560 nm. Each data point represents the average of three measurements. The error bars represent the standard deviation of the mean (A). MEL cells in GVB-MgEGTA buffer were incubated with 10 μg/mL of either rBSP or rOPN for 10 minutes at 37° C. Normal human serum was then added at a dilution of 1:10 and the cells were returned to 37° C., incubated for 2 hours and cell viability was determined by trypan blue and thiazolyl blue (MTT) reduction assays (B). Data from 3–7 separate experiments, with treatment replicates in triplicate, was combined to yield mean values. Error bars represent the standard error of the mean. N=number of experiments combined.
MEL cells prepared as in FIG. 8 were treated with normal rBSP (10 μg/mL), rBSP whose RGD sequence had been mutated to KAE ([…]), and either GRGDS (SEQ ID NO: 10) peptide (400 μM) followed by rBSP or an αVβ3 antibody (1:4000) followed by rBSP for 10 minutes prior to the addition of normal human serum. The cells were then incubated for […] after which cell viability determined using the MTT assay (A). A cohort of MEL cells were pretreated with rOPN (10 μg/mL) alone, GRGDS (SEQ ID NO: 10) peptide followed by rOPN, the αVβ3 antibody followed by rOPN, or an anti-CD44 antibody (Chemicon, Co.) followed by rOPN, or hyaluronan (HA) followed by rOPN (B). Cells were then treated with normal human serum and viability assayed as in FIG. 8. […] The data represents the mean and standard error of the mean for three separate experiments. Statistical significance was determined by analysis of variance. Percent cell viability was determined using A560 absorbance values of various conditions and a control where no serum had been added (100% viable). The cross-hatched region represents that range of values observed when normal human serum (1:10) alone was added (maximal cell death).
The first model system employed was a murine erythroleukemia (MEL) cell line which when incubated with normal human serum can be readily assayed for alternate complement pathway (ACP)-mediated cell lysis (Varnet et al., Curr. Opin. Cell Biol., 8(5):724–730, 1996). Cell survival was measured by both trypan blue dye exclusion and by thiazolyl blue (MTT) reduction by living mitochondria. Titration with dilutions of normal human serum and time courses were carried out to define optimal incubation conditions. At 1:10 dilution, human serum totally lysed the MEL cells as measured by both assay systems (FIG. 8A).
Murine erytliroleukemia (MEL) cells (a gift of Dr. Marilyn Farquhar, Univ. CA San Diego.) grown in DMEM containing 10% fetal bovine serum and 4 mM glutamine were rinsed three times with gelatin veronal buffer with Mg2^+ and EGTA (GVB-MgEGTA, Sigma, St. Louis, Mo.). Cells were resuspended in GVB-MgEGTA at a density of 5×10^6 cells/mL and incubated at 37° C. with different concentrations of normal human serum diluted in GVB-MgEGTA. After 2 h, cells were harvested for trypan blue exclusion assay by removing a 50 μL aliquot, incubating for 15 minutes in 0.4% trypan blue, and counting viable cells under an inverted microscope. The thiazolium blue assay was carried out at identical serum dilutions by incubating a 50 μL aliquot of the cell suspension in an equal volume of 1 mg/mL thiazolyl blue (MTT) for 45 min. Cell viability was determined spectrophotometrically by absorbance at 560 nm. Cells in GVB-MgEGTA buffer were pre-incubated with 10 μg of either rBSP, rDMP1, or rOPN in 1 mL for 10 minutes at 37° C. […]

[2] = target: T1, purified human complement Factor H (Homo sapiens, UniProt P08603); experiment: Steady state fluorescence titration of Factor H with SIBLINGS proteins; assay type: binding; conditions: fluorescence quenching at 347 nm, excitation 295 nm
T1 construct: purchased Quidel Corporation (San Diego, Calif.)
T1 sequence (P08603 19-1231): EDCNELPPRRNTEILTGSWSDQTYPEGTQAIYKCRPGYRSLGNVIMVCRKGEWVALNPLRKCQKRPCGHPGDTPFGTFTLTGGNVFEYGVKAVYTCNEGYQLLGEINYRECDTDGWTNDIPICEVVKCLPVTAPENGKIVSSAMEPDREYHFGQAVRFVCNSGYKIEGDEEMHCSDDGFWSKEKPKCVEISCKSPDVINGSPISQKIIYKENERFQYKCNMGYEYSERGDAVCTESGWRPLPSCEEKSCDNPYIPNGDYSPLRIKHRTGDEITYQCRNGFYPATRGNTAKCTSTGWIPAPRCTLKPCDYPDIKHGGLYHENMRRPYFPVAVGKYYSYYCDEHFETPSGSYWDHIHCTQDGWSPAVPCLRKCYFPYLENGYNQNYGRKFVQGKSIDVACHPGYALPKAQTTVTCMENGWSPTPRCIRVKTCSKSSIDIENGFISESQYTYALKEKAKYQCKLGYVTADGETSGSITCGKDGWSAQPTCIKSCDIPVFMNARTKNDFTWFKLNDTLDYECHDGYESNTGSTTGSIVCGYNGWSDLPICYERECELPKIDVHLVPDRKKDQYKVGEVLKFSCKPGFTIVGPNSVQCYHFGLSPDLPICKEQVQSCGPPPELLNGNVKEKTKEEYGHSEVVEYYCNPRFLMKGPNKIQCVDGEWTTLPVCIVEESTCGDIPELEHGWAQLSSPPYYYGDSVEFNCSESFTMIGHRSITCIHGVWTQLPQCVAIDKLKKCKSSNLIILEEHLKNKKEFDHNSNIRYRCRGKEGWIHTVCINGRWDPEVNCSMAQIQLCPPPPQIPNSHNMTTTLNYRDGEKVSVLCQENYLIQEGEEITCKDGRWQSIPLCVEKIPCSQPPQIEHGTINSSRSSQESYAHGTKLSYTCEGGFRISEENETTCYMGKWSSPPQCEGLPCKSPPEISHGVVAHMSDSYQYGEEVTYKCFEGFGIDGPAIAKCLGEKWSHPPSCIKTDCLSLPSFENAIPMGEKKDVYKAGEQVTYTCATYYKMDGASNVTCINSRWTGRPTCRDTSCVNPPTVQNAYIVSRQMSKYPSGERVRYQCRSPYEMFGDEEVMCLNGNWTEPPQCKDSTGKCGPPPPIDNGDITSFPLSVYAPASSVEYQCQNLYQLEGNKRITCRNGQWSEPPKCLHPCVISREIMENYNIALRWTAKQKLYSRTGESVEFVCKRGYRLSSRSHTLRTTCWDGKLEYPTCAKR
From the text: FIGS. 3A and 3B are graphs which show the result of a titration of Factor H with BSP.
The salient structural features of Factor H include 20 short consensus repeats (SCRs) that contain four cysteine residues forming two disulfide bonds per repeat. In addition, each SCR contains one conserved tryptophan residue per repeat and Factor H is known to interact with several sialic acid-containing proteins. Therefore, binding interactions between members of the SIBLINGS family of proteins and Factor H can be studied by steady state fluorescence.
Steady state fluorescence studies were accomplished by titrating purified human complement Factor H with rBSP, rOPN, and rDMP1 followed by excitation at 295 nm and monitoring emission between 300 and 450 nm. The emission profile of Factor H alone yields a peak at 347 nm. The addition of rBSP, rOPN, or rDMP1 in nm increments causes a relative fluorescent intensity quenching. Conversion of the fluorescent intensity titration into a binding curve by determining the fraction of binding sites occupied as the fractional change in fluorescence quenching at 347 nm yields a saturable binding curve. […] Given that normal serum concentration of Factor H is ^˜0.5 mg/mL it is probable that virtually all BSP, OPN, and DMP1 in serum will be complexed with Factor H.

[3] = tested on: MCF-7 breast cancer cells; experiment: Alternate complement pathway cell lysis assay with guinea pig serum, MCF-7; assay type: cell-based, human; conditions: MCF-7, 10 μg/mL, guinea pig serum 1:5, trypan blue and MTT
Method: (§1) Human cancer cell lines, MCF-7 (A) and U-266 (B) cells were rinsed three time with GVB-MgEGTA buffer and subsequently treated exactly as in the MEL cell complement-mediated cell lysis assay described above except complement active guinea pig serum (GPS) was substituted for human serum. Three different dilutions of GPS were assayed. For cultures pretreated with 10 μg/mL BSP or OPN, the dilution of GPS used was 1:5. Cell viability was determined by both trypan blue exclusion (solid bar) and MTT (open bar) assay. The bars represent the mean values of triplicate samples and the error bars are the standard deviation values.
(§2) Murine erytliroleukemia (MEL) cells (a gift of Dr. Marilyn Farquhar, Univ. CA San Diego.) grown in DMEM containing 10% fetal bovine serum and 4 mM glutamine were rinsed three times with gelatin veronal buffer with Mg2^+ and EGTA (GVB-MgEGTA, Sigma, St. Louis, Mo.). Cells were resuspended in GVB-MgEGTA at a density of 5×10^6 cells/mL and incubated at 37° C. with different concentrations of normal human serum diluted in GVB-MgEGTA. […] Cell viability was determined spectrophotometrically by absorbance at 560 nm. […] Normal human serum collected for good complement activity was then added at a dilution of 1:10 and the cells returned to 37° C. for 2 hours and cell viability was determined by trypan blue-exclusion and MTT assays. […]

[4] = tested on: U-266 myeloma cells; experiment: Alternate complement pathway cell lysis assay with guinea pig serum, U-266; assay type: cell-based, human; conditions: U-266, 10 μg/mL, guinea pig serum 1:5, trypan blue and MTT
Method: as §1, §2

Substance: rBSP-Factor H: pre-formed complex of rBSP and Factor H
- protection of MEL cells from complement-mediated lysis (cell viability) [1]: abolished the protection

Substance: rOPN-Factor H: pre-formed complex of rOPN and Factor H
- protection of MEL cells from complement-mediated lysis (cell viability) [1]: abolished the protection

Substance: GRGDS: synthetic peptide used to compete with SIBLINGS proteins for integrin type binding (Calbiochem-NovaBiochem) [reference compound]
- effect of pretreatment on protective effect of rBSP ([1]; MEL cells, GRGDS 400 μM or αVβ3 antibody 1:4000 followed by rBSP 10 μg/mL, MTT): negated the protective effect
- effect of pretreatment on protective effect of rOPN ([1]; MEL cells, MTT): reduced cell survival
- effect of preincubation on DMP1 protection ([1]; cells preincubated before DMP1): diminished but did not abolish

Substance: OPN: osteopontin, SIBLINGS family member; recombinant from adenoviral construct
- binding constant with Factor H [2]: in the nM range
- dose relation of protection of MEL cells from alternate complement pathway-mediated lysis [1]: dose related responses
- protection of MEL cells from complement-mediated lysis (cell viability) [1]: protect
- protection of MEL cells from complement-mediated lysis (cell viability) ([1]; listed as recombinant OPN): conferred protection
- survival and protection from complement-mediated cell lysis [3]: enhanced survival and protection
- survival and protection from complement-mediated cell lysis [4]: enhanced survival and protection

Substance: hyaluronan [reference compound]
- effect of pretreatment on protective effect of rOPN ([1]; MEL cells, MTT): reduced the protective effect
